# Activity calls are given as the source filed them.
# Key:
# Cytochrome P450 2C9 = Cytochrome P450 2C9 (Homo sapiens, UniProt P11712)
# Cytochrome P450 3A4 = Cytochrome P450 3A4 (Homo sapiens, UniProt P08684);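 also: CYP3A4 tested as one member of a cytochrome P450 panel screen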
# [1] = target: Luciferin 4-monooxygenase (Photinus pyralis, UniProt P08659); assay: firefly luciferase enzyme inhibitors, dose response, biochemical, luminescence (AID 1891)
# [2] = Luminescence Cell-Based Dose Confirmation HTS to Identify Inhibitors of Platelet Dense Granule Release. [Related pubchem assays: 1663 (Primary HTS), 1678 (Summary of Project)]; type: functional
# [3] = target: T1, Short transient receptor potential channel 4 (Mus musculus, UniProt Q9QUQ5); assay: mouse TRPC4 channel activators, dose response, cell-based, HEK293 TRPC4/mu-opioid, Fluo-4 calcium (AID 434937); type: functional
# T1 sequence (Q9QUQ5 whole entry): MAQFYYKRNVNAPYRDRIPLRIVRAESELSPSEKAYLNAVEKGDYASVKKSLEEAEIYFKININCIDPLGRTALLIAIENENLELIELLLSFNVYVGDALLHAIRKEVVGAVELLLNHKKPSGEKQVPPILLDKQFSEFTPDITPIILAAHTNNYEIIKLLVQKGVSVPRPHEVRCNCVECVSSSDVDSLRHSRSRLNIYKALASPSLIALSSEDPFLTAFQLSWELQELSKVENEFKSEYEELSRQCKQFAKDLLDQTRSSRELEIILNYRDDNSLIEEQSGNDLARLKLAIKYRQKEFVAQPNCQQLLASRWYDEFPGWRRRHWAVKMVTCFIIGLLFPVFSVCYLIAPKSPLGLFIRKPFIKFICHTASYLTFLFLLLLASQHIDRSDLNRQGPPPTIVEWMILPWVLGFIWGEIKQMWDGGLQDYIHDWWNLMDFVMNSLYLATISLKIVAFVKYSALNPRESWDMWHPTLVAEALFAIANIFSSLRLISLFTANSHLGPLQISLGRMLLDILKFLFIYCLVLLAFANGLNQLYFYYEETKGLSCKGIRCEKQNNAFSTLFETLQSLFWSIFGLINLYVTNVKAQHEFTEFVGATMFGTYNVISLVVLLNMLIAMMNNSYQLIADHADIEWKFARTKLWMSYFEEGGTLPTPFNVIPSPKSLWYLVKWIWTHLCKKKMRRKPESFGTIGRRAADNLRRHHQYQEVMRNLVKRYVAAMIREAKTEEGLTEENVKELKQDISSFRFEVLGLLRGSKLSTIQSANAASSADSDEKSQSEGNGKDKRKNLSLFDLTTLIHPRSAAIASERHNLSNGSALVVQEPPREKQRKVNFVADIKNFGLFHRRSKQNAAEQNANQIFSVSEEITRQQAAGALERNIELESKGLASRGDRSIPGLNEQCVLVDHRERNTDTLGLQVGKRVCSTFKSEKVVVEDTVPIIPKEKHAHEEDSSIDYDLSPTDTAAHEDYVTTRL
# Beta-lactamase [4] = target: Beta-lactamase (Salmonella choleraesuis (strain SC-B67), UniProt Q5J463); assay: Epi-absorbance-based counterscreen for selective VIM-2 inhibitors: dose response biochemical high throughput screening assay to identify inhibitors of TEM-1 serine-beta-lactamase.
# Sequence of Beta-lactamase (Salmonella choleraesuis (strain SC-B67), UniProt Q5J463) (Q5J463 whole entry): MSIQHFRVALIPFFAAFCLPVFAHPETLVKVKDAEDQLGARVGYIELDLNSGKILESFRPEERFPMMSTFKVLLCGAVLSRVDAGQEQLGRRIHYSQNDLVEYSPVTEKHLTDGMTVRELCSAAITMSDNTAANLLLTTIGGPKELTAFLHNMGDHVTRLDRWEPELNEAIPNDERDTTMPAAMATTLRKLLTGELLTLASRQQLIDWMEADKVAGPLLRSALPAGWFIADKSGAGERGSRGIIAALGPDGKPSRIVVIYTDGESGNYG
# Beta-lactamase [5] = target: T2, Beta-lactamase (Pseudomonas aeruginosa, UniProt Q79MP6); assay: IMP-1 metallo-beta-lactamase inhibitors, dose response, selectivity assay for VIM-2 inhibitor project, biochemical, epi-absorbance (AID 1920)
# T2 sequence (Q79MP6 whole entry): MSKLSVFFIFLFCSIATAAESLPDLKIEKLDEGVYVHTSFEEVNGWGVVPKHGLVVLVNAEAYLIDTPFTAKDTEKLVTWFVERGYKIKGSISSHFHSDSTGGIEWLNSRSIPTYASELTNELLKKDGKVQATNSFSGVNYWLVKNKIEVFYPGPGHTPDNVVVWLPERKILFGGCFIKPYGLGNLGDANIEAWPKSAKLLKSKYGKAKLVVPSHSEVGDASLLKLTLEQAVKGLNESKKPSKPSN
# Beta-lactamase [6] = target: T2, Beta-lactamase; assay: […] counterscreen for selective VIM-2 inhibitors: dose response biochemical high throughput screening assay to identify inhibitors of IMP-1 metallo-beta-lactamase.
# Cytochrome P450 1A2 = target: T3, Cytochrome P450 1A2 (Homo sapiens, UniProt P05177);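 also: PubChem cytochrome P450 panel assay, CYP1A2 panel member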
# T3 sequence (P05177 whole entry): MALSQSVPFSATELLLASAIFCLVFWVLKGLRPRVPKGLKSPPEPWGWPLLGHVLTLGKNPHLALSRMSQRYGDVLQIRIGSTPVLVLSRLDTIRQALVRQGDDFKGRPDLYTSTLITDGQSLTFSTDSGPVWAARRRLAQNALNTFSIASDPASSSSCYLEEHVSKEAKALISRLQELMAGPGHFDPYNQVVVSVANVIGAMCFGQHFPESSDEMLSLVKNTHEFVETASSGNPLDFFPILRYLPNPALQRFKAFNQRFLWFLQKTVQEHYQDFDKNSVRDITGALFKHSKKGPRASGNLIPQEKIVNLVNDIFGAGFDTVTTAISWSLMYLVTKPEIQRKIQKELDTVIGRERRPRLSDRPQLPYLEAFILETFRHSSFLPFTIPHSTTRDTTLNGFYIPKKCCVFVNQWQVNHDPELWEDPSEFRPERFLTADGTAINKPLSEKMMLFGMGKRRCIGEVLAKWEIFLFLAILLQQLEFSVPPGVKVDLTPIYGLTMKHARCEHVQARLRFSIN
# [7] = target: T4, Tyrosine-protein phosphatase non-receptor type 7 (Homo sapiens, UniProt P35236); type: functional
# T4 sequence (P35236 whole entry): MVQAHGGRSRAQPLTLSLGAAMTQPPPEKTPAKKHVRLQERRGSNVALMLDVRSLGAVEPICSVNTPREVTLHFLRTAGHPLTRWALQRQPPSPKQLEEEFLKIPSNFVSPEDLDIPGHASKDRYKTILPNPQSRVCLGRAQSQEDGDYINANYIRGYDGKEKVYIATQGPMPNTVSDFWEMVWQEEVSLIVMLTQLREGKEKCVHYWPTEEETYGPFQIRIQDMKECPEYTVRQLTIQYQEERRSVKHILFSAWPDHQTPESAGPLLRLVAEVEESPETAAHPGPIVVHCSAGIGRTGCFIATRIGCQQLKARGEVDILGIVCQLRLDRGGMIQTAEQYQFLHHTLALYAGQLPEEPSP
# [8] = target: T5, Tyrosine-protein phosphatase non-receptor type 22 (Homo sapiens, UniProt Q9Y2R2); type: functional
# T5 sequence (Q9Y2R2 whole entry): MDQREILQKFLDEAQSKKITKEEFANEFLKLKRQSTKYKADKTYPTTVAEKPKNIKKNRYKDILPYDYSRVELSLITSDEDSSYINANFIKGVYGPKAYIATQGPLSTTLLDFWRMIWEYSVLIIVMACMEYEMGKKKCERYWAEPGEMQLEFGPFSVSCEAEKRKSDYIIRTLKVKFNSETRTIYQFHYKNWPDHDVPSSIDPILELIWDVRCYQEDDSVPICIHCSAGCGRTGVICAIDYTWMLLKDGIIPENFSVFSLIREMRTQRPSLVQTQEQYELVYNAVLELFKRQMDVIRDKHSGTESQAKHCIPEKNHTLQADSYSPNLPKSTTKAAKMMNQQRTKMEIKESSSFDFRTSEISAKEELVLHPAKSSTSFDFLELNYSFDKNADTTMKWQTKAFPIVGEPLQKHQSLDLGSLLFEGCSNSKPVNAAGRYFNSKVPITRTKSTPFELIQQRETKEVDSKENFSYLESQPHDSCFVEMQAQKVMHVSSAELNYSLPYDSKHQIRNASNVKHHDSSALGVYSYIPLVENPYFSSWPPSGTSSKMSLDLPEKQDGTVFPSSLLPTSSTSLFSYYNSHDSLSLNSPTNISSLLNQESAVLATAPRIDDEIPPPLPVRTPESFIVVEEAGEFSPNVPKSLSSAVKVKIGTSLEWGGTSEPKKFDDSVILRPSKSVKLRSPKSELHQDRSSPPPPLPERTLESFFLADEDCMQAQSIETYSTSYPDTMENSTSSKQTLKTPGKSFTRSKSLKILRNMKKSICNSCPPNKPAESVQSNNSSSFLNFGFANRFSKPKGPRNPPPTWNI
# [9] = target: T5, Tyrosine-protein phosphatase non-receptor type 22; type: functional; remark: listed apart in the source
# Bcl-2-related protein A1 = target: T6, Bcl-2-related protein A1 (Mus musculus, UniProt Q07440); type: functional;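 also: confirmatory dose–response counterscreen on Bfl-1, used to check hits from a UBC13 polyubiquitin inhibitor campaign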
# T6 sequence (Q07440 whole entry): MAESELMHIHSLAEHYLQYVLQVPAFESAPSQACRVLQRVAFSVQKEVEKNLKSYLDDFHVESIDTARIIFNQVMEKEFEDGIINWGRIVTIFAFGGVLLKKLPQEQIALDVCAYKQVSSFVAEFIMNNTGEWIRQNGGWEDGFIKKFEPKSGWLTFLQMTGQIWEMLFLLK
# [10] = target: T7, Ubiquitin-conjugating enzyme E2 N (Homo sapiens, UniProt P61088); type: functional
# T7 sequence (P61088 whole entry): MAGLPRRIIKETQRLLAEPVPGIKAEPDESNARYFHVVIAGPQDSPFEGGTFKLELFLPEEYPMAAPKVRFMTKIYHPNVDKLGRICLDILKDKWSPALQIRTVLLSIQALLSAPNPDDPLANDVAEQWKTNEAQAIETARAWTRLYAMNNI
# [11] = target: T7, Ubiquitin-conjugating enzyme E2 N; type: functional; remark: listed apart in the source
# Cytochrome P450 2D6 = Cytochrome P450 2D6 (Homo sapiens, UniProt P10635);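 also: CYP2D6 member of a cytochrome P450 panel assay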
# Sequence of Cytochrome P450 2D6 (P10635 whole entry): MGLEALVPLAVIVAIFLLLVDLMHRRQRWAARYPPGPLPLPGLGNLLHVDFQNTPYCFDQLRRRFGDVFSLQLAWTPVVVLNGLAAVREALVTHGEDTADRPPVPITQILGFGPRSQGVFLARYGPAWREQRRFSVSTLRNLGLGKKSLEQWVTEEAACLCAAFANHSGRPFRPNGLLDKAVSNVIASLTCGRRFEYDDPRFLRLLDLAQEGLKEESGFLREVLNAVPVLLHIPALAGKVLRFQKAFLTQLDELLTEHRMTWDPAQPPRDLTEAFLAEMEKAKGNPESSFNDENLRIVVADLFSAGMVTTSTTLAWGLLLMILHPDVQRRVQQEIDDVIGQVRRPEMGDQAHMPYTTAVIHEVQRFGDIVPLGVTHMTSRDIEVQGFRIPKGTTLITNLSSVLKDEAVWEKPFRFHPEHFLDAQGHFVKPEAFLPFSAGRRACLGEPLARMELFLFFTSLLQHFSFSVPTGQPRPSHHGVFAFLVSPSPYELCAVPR
# CHO-K1 = assay: (§1) Counterscreen for antagonists of the orexin 1 receptor (OX1R; HCRTR1): Homogeneous time resolved fluorescence (HTRF)-based cell-based dose response assay to identify antagonists of the parental CHO-K1 cell line. [Related pubchem assays (depositor defined):AID434989, AID435008, AID463079, AID485270, AID492963, AID492964, AID492965, AID493232, AID504699, AID504701]; type: functional; conditions: Cricetulus griseus
# [12] = as §1, with “Fluorescence-based” for “Homogeneous time resolved fluorescence (HTRF)-based”, “cell-based high throughput” for “cell-based”, “CHO” for “CHO-K1”; type: functional
# [13] = target: T8, Orexin/Hypocretin receptor type 1 (Homo sapiens, UniProt O43613); assay: Homogeneous Time Resolved Fluorescence (HTRF)-based cell-based high throughput dose response assay for antagonists of the orexin 1 receptor (OX1R; HCRTR1). [Related pubchem assays (depositor defined):AID434989, AID435008, AID463079, AID485270, AID492963, AID492964, AID492965, AID493232, AID504717, AID504718]; type: functional
# T8 sequence (O43613 whole entry): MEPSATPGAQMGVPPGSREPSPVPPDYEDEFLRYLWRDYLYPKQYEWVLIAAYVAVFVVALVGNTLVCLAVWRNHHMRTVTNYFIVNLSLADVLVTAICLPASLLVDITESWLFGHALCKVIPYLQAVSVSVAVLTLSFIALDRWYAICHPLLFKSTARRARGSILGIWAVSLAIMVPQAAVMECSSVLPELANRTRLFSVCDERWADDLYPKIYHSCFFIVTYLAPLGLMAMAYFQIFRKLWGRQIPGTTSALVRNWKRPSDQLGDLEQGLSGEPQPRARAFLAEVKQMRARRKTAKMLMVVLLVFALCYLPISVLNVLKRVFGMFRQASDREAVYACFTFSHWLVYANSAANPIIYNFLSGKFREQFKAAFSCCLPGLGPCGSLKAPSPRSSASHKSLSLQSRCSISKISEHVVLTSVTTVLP
# [14] = target: T8, Orexin/Hypocretin receptor type 1; assay: Fluorescence-based cell-based high throughput dose response assay for antagonists of the orexin 1 receptor (OX1R; HCRTR1). [Related pubchem assays (depositor defined):AID434989, AID435008, AID463079, AID485270, AID492963, AID492964, AID492965, AID493232, AID504717, AID504718]; type: functional
# Sequence of Cytochrome P450 3A4 (P08684 whole entry): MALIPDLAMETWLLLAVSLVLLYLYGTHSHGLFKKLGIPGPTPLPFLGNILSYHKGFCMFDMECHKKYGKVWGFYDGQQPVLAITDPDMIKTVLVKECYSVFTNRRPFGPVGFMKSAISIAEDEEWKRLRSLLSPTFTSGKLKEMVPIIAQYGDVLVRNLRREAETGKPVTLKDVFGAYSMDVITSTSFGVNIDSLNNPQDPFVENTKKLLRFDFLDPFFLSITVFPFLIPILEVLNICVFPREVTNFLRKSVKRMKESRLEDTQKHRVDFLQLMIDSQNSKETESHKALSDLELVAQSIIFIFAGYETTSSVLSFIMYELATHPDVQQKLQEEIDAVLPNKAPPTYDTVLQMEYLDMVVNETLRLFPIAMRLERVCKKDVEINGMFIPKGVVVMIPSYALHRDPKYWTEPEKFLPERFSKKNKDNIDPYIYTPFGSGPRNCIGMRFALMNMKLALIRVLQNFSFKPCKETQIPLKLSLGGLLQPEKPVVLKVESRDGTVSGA
# Sequence of Luciferin 4-monooxygenase (P08659 whole entry): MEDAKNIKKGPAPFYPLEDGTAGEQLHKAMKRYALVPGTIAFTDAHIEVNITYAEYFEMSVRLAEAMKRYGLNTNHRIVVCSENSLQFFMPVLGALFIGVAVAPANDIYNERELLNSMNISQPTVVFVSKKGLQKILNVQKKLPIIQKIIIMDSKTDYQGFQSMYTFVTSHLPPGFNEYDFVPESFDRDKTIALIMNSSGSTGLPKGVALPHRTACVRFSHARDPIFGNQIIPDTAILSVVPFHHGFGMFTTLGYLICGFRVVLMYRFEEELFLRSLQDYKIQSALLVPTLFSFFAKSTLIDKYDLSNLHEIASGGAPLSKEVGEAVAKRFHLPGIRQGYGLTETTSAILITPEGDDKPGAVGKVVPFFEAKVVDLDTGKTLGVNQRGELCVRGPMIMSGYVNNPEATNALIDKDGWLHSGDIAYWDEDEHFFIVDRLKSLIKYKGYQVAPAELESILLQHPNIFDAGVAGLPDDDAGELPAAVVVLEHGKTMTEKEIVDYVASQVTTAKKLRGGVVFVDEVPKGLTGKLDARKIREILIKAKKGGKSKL
# Sequence of Cytochrome P450 2C9 (P11712 whole entry): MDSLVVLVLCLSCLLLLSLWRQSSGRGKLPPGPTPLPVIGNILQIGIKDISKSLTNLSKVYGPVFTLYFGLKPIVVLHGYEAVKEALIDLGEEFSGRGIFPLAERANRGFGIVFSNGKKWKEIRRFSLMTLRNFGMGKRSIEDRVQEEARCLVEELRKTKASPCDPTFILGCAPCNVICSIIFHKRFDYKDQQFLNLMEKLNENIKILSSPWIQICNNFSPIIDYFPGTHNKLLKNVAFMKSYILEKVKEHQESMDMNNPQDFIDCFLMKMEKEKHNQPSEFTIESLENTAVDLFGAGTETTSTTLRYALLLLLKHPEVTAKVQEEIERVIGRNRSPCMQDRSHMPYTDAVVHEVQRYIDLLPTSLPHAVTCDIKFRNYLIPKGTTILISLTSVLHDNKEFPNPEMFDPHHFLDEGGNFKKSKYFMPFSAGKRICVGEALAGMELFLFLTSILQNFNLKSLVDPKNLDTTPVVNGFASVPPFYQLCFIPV
smiles,measurement,setting,value
COC(=O)COc1ccc(/C=C2/SC(=O)N(CC(=O)N3CCCC3)C2=O)cc1Br,AC50,Cytochrome P450 2C9,10 µM (inconclusive)
same,AC50,Cytochrome P450 3A4,inconclusive
CN1CCCC(OC(=O)c2cc(Br)ccc2Cl)C1 (stereo not given),EC50,[1],> 112 µM (not active)
same,EC50,[2],> 56.1 µM (not active)
same,EC50,[3],0.211 µM (active)
CCCC(=O)Nc1nnc(SCC(=O)NCc2cccs2)s1,IC50,Beta-lactamase [4],> 59.6 µM (inactive)
same,IC50,Beta-lactamase [5],> 59.6 µM (inactive)
same,IC50,Beta-lactamase [6],> 59.6 µM (inactive)
same,AC50,Cytochrome P450 1A2,10 µM (inconclusive)
same,AC50,Cytochrome P450 3A4,inconclusive
CC1Cc2ccccc2N1CC(=O)Nc1cccc(S(N)(=O)=O)c1 (stereo not given),IC50,[7],> 79.4 µM (inactive)
same,IC50,[8],> 79.4 µM (inactive)
same,IC50,[9],> 79.4 µM (inactive)
CCN(CC(=O)NCc1cccs1)C(=O)c1cccc(S(=O)(=O)Nc2ccccc2OC)c1,IC50,Bcl-2-related protein A1,> 20 µM (inactive)
same,IC50,[10],17.1 µM (active)
same,IC50,[11],11.3 µM (active)
COc1ccc(Cc2nnc(NC(=O)c3ccccc3F)s2)cc1OC,IC50,[7],> 79.4 µM (inactive)
same,IC50,[8],> 79.4 µM (inactive)
same,IC50,[9],> 79.4 µM (inactive)
COc1ccc(-c2nn(-c3ccccc3)cc2CNCc2cccnc2)c(F)c1,EC50,[3],5.96 µM (active)
Cc1c(NC(=O)CCCN2C(=O)c3cccc4cccc(c34)C2=O)c(=O)n(-c2ccccc2)n1C,IC50,Bcl-2-related protein A1,> 20 µM (inactive)
same,IC50,[10],18.5 µM (active)
same,IC50,[11],8.02 µM (active)
O=C(Cn1cnc2ccccc2c1=O)NCCC(=O)Nc1ccc2c(c1)OCCO2,AC50,Cytochrome P450 2D6,inconclusive
same,AC50,Cytochrome P450 3A4,inconclusive
Cc1csc2c(N3CCN(C(=O)Nc4ccc(OC(F)(F)F)cc4)CC3)ncnc12,EC50,[3],1.88 µM (active)
Oc1ccccc1-c1nc(NCC2CCCO2)c2ccccc2n1 (stereo not given),IC50,CHO-K1,> 66.2 µM (inactive)
same,IC50,[12],45.8 µM (inactive)
same,IC50,[13],3.73 µM (active)
same,IC50,[14],8.66 µM (active)

# Source: ChEMBL document CHEMBL1201862, “PubChem BioAssay data set” (2004)
